Patent US20180015170A1, “CYCLODEXTRIN-BASED POLYMERS FOR THERAPEUTIC DELIVERY” (CERULEAN PHARMA INC., priority 2012, published 2018)
Where “and” joins values, the source holds several entries; their conditions need not be identical. Identical values can stand only once.

What was measured:
[1] = Tolerability (body weight) in the B16.F10 murine melanoma model
Description: (§1) Animals were monitored for any morbidity and adverse effect three times a week.
Health monitoring was conducted three times a week to evaluate lethargy, tremors, hypothermia, ataxia, hind limb paralysis etc. The criteria at which a mouse was removed from the study were >20% body weight loss or severe morbidity or hind limb paralysis.

B16.F10 cells = experiment: Efficacy of CDP-docetaxel nanoparticles in a murine melanoma model; assay type: in vivo, male C57BL/6 mice
Description: as §1
Tumor volume was calculated with a (width×width×length)/2 mm^3 formula.

[2] = 15 mg/kg IV, weekly schedule for 3 injections
[3] = 30 mg/kg IV, weekly schedule for 3 injections (sections 1.4, 2.3, 4.2, 5.2)

Substance | Maximum body weight loss (%) [1, 2] | Maximum body weight loss (%) [1, 3] | Tumor growth delay (TGD) (B16.F10 cells; [2]) | day on which the mean tumor volume endpoint (≧3000 mm^3) was reached (B16.F10 cells; [2]) | increase in TGD (B16.F10 cells; [2]) | Tumor growth delay (TGD) (B16.F10 cells; [3]) | day on which the mean tumor volume endpoint (≧3000 mm^3) was reached (B16.F10 cells; [3]) | increase in TGD (B16.F10 cells; [3]) | day on which the mean tumor volume endpoint (≧3000 mm^3) was reached (B16.F10 cells; mouse, in vivo)
CDP-dithiolethyloxy-carbonate-docetaxel [CDP-ethane-S-S-ethane-DTX formulation] | did not cause any body weight loss | did not cause any significant body weight loss | 2 days | 21 days | 11% | 5 days | 24 days | 26% | –
CDP-2′-alanine glycolate-docetaxel [CDP-Ala Gly-DTX formulation] | – | – | – | – | – | – | – | – | 43 days and 33 days and 29 days
CDP-2′-aminoethoxyethoxy-Docetaxel [CDP-aminoethoxyethoxy-DTX formulation] | – | – | – | 33 days | – | – | – | – | –
